According to patent US20230240953A1, “AN ANTIMICROBIAL COMPOSITION, PROCESS FOR PREPARING THE SAME AND METHOD OF USE THEREOF” (ISP INVESTMENTS LLC, priority 2020, published 2023):

Key:
Experiment in all cases: Checkerboard microplate synergy assay, compound A = HPB
Type in all cases: cell-based
[1] = test system: Burkholderia cepacia 25416; details: B. cepacia; for Interaction / SI index (Synergy Index = Qa/QA+Qb/QB): HPB + compound B
Protocol: (§1) The synergistic antimicrobial effect was determined using a commonly accepted method described by Kull A. C, Eisman, P. C. Sylwestrowicz, H. D. and Mayer, R. L. 1961. Applied Microbiology, 9:538-541
(§2) Briefly, the standard checkerboard approach was used to make all the dilutions. HPB (compound A) solution was prepared and then serially diluted in DMSO using the 96-well dilution plate. Automated liquid handler was then used to stamp multiple assay plates using this dilution plate. Each well of the assay plate was then supplemented with a predetermined concentration of the second antimicrobial (compound B). The final concentration of DMSO was kept constant across the plate for each assay, not exceeding 3% (w/w).
(§3) To evaluate antibacterial activity of the actives, freshly prepared S. aureus and B. cepacia cells were harvested and resuspended in Trypticase Soy Broth (TSB). The cell suspension was then added to the wells of the appropriate plates with the final cell density being 10^6 cfu/ml. Fungal plates were incubated at 28° C. for 4-5 days, prior to being evaluated. Bacterial plates were incubated for 48 hours at 35° C. prior to being evaluated.
(§4) Synergy Index (SI)=Qa/QA+Qb/QB • Qa is the MIC of compound A (HPB) in ppm, when compound A is being used in combination with compound B • QA is the MIC of compound A (HPB) in ppm, acting alone • Qb is the MIC of compound B in ppm, when the compound B is being used in combination with compound A • QB is the MIC of compound B in ppm, acting alone Each ratio Qa/QA and Qb/QB is sometimes referred to as Fractional Inhibitory Concentrations (FICs) of compounds A and B, respectively, when these two compounds are being used in combination with one another. The sum of FICs constitute the Synergy Index (SI). The synergistic effect is indicated if the Synergy Index is below one (SI<1). An additive effect is indicated if the Synergy Index is equal to one (SI=1). An antagonistic effect is indicated if synergy index is greater than one (SI>1). The lower the SI index the greater the synergy.

[2] = test system: Staphylococcus aureus 6538; details: S. aureus; for Interaction / SI index (Synergy Index = Qa/QA+Qb/QB): HPB + compound B; for MIC: Staphylococcus aureus, 6538, read-out: Compound B (QB): MIC of compound B acting alone
Protocol: as §1, §2, §3, §4

[3] = test system: Aspergillus brasiliensis 16404; design: key to SI index (Synergy Index = Qa/QA+Qb/QB): SI = Qa/QA + Qb/QB (MICs in ppm); <1 synergy, =1 additive, >1 antagonism; details: for MIC: Aspergillus brasiliensis, 16404, compound B alone, read-out: Compound B (Qb): MIC of compound B acting alone; for Interaction / SI index (Synergy Index = Qa/QA+Qb/QB): HPB + compound B
Protocol: as §1, §2
To evaluate antifungal activity of the actives, freshly prepared A. brasiliensis spores were harvested and resuspended in Yeast and Malt Broth (YMB). The spore suspension was then added to the appropriate plates with the final density being 10^5 cfu/ml.
as §3, §4

Molecule | MIC [3] | Interaction [3] | SI index (Synergy Index = Qa/QA+Qb/QB) [3] | Compound B (Qb): MIC of compound B when used in combination with HPB [3] | Compound B (Qb): MIC of compound B acting alone [3] | further results
OCCCc1ccccc1 | – | – | – | – | – | Interaction [1]: synergistic; SI index (Synergy Index = Qa/QA+Qb/QB) [1]: 0.75; Compound B (Qb): MIC of compound B when used in combination with HPB [1]: 156 ppm; Compound B (QB): MIC of compound B acting alone ([1]; compound B alone): 625 ppm; Interaction [2]: synergistic; SI index (Synergy Index = Qa/QA+Qb/QB) [2]: ≤0.5625; Compound B (Qb): MIC of compound B when used in combination with HPB [2]: 156 ppm; Compound B (QB): MIC of compound B acting alone ([2]; compound B alone): 2,500 ppm
CCCCC(O)CO (stereo not shown) [1,2-Hexanediol] | 12500 µg/mL | Additive (An additive effect is indicated if the Synergy Index is equal to one (SI=1)) | 1 | 6,300 ppm | – | –
CCCCCCC(O)CO (stereo not shown) [1,2-Octanediol] | 1600 µg/mL | Synergistic (The synergistic effect is indicated if the Synergy Index is below one (SI<1)) | 0.56 | 100 ppm | – | –
CCCC(O)CO (stereo not shown) [1,2-Pentanediol] | 100000 µg/mL | Additive (An additive effect is indicated if the Synergy Index is equal to one (SI=1)) | 1 | 50,000 ppm | – | –
OCCCO [1,3-Propanediol] | – | Additive (An additive effect is indicated if the Synergy Index is equal to one (SI=1)) | ≤1 | 100,000 ppm | ≥200,000 ppm | –
COc1ccc(C(=O)O)cc1 [Anisic acid] | – | Synergistic (The synergistic effect is indicated if the Synergy Index is below one (SI<1)) | 0.75 | 250 ppm | 1,000 ppm | –
O=C(O)c1ccccc1 [Benzoic acid] | 1000 µg/mL | Synergistic (The synergistic effect is indicated if the Synergy Index is below one (SI<1)) | 0.75 | 500 ppm | – | –
OCc1ccccc1 [Benzyl alcohol] | 5000 µg/mL | Synergistic (The synergistic effect is indicated if the Synergy Index is below one (SI<1)) | 0.75 | 2,500 ppm | – | Interaction [2]: synergistic; SI index (Synergy Index = Qa/QA+Qb/QB) [2]: ≤0.625; Compound B (Qb): MIC of compound B when used in combination with HPB [2]: 625 ppm; MIC ([2]; compound B alone): 5000 µg/mL
O=C(O)C=Cc1ccccc1 [Cinnamic acid] | 500 µg/mL | Additive (An additive effect is indicated if the Synergy Index is equal to one (SI=1)) | 1-2 | 500 ppm | – | –
O=C(O)CN(CCN(CC(=O)O)CC(=O)O)CC(=O)O [EDTA] | – | Synergistic (The synergistic effect is indicated if the Synergy Index is below one (SI<1)) | 0.56 | 800 ppm | 12,500 ppm | –
CCCCC(CC)COCC(O)CO (stereo not shown) [Ethylhexylglycerin] | – | Synergistic (The synergistic effect is indicated if the Synergy Index is below one (SI<1)) | 0.56 | 100 ppm | 1,600 ppm | –
O=C(O)CC[C@@H](C(=O)O)N(CC(=O)O)CC(=O)O [GLDA] | – | Synergistic (The synergistic effect is indicated if the Synergy Index is below one (SI<1)) | 0.75 | 1,600 ppm | 6,250 ppm | –
Cc1occc(=O)c1O [Maltol] | 2000 µg/mL | Synergistic (The synergistic effect is indicated if the Synergy Index is below one (SI<1)) | 0.75 | 1,000 ppm | – | –
OCCc1ccccc1 [Phenethyl alcohol] | – | – | – | – | – | Interaction [1]: synergistic; SI index (Synergy Index = Qa/QA+Qb/QB) [1]: 0.625; Compound B (Qb): MIC of compound B when used in combination with HPB [1]: 125 ppm; MIC ([1]; Burkholderia cepacia, 25416, compound B alone, read-out: Compound B (Qb): MIC of compound B acting alone): 1000 µg/mL; Interaction [2]: synergistic; SI index (Synergy Index = Qa/QA+Qb/QB) [2]: ≤0.75; Compound B (Qb): MIC of compound B when used in combination with HPB [2]: 2,000 ppm; MIC ([2]; compound B alone): ≥ 4000 µg/mL
O=P(O)(O)O[C@H]1[C@H](OP(=O)(O)O)[C@@H](OP(=O)(O)O)[C@H](OP(=O)(O)O)[C@@H](OP(=O)(O)O)[C@H]1OP(=O)(O)O [Phytic acid] | 12500 µg/mL | Synergistic (The synergistic effect is indicated if the Synergy Index is below one (SI<1)) | 0.75 | 3,125 ppm | – | –
[F-].[Na+] [Sodium fluoride] | – | – | – | – | – | Interaction [1]: synergistic; SI index (Synergy Index = Qa/QA+Qb/QB) [1]: ≤0.625; Compound B (Qb): MIC of compound B when used in combination with HPB [1]: 10,000 ppm; Compound B (QB): MIC of compound B acting alone ([1]; compound B alone): ≥200,000 ppm
CCCCNC(=O)OCC#CI [lodopropynyl butylcarbamate (IPBC), lodopropynyl butylcarbamate] | – | – | – | – | – | Interaction [1]: synergistic; SI index (Synergy Index = Qa/QA+Qb/QB) [1]: 0.508; Compound B (Qb): MIC of compound B when used in combination with HPB [1]: 2 ppm; Compound B (QB): MIC of compound B acting alone ([1]; compound B alone): 250 ppm
Glyceryl caprylate/caprate | – | Synergistic (The synergistic effect is indicated if the Synergy Index is below one (SI<1)) | 0.75 | 800 ppm | 3,125 ppm | –
Hexyl glycerin | – | Additive (An additive effect is indicated if the Synergy Index is equal to one (SI=1)) | 1 | 1,600 ppm | 3,125 ppm | –
